By IC50 is commonly meant the point on the concentration scale where inhibition reaches its midpoint.

Molecules are shown by their SMILES.

The text below walks through data of BindingDB's records for patent US20240336593 (Lnnovstonetherapeutics, 2024).

The target in this experiment is Protein arginine N-methyltransferase 5 (Homo sapiens, UniProt O14744). As to the kind of experiment: Test on the inhibitory activity of the compounds of the invention against PRMT5 enzyme by radioisotopic method. As to the method: Test method: A 1× enzyme reaction buffer (10 mM Tris 8.0 (Sigma, Cat. No. T2694-1L), 0.01% Tween-20 (Sigma, Cat. No. P2287-100 ML), 1 mM DTT (Sigma, Cat. No. D0632-10G)) was prepared. […] SAM (PerkinElmer, Cat. No. NET155V001MC) were added to the 1×enzyme reaction buffer, to prepare a 25/15× mixed solution (PRMT5 final concentration: 5 nM, [3H] SAM final concentration: 0.3 μM). […] 25 µL of the reaction mixture was transferred into a FlashPlate (Streptavidin FlashPlate HTS PLUS, High Capacity, 384-well, Perkin Elmer, Cat. No. SMP410A001PK), and incubated at room temperature for 1 h. After washed three times with distilled water containing 0.1% Tween-20, the microplate was read on a MicroBeta reader for CPM data (Counts Per Minute). […] Then the inhibition rate Inh % (Y) corresponding to each concentration (X) was input in EXCEL, and the IC50 value (the half maximal inhibitory concentration) of each compound was calculated with the XLfit plug-in according to the built-in four-parameter fitting equation Y=Bottom+(Top-Bottom)/(1+(IC50/X)[…]).
Chain of Protein arginine N-methyltransferase 5 (O14744 whole entry): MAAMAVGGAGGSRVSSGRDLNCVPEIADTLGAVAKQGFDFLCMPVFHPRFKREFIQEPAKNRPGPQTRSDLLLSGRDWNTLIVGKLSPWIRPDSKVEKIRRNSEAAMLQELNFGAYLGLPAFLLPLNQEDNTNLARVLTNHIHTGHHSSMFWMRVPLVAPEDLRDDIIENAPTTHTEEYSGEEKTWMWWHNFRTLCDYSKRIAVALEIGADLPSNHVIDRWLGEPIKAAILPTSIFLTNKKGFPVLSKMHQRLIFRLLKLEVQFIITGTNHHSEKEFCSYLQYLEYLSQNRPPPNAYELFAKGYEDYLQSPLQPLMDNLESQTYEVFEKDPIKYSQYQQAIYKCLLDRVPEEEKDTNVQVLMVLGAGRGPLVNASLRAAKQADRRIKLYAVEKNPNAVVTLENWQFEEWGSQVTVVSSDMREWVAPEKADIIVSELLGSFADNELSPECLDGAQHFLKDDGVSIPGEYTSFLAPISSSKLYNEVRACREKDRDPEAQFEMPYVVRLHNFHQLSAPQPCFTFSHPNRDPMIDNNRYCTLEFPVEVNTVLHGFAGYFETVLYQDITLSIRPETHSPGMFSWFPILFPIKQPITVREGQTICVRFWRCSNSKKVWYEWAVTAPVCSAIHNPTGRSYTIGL
On to `Cc1cccc(Nc2cc(N3CC[C@H](N4CCc5ccccc5C4)[C@@H](O)C3)ncn2)c1` (relative stereo) [US20240336593, Example 34], for which the IC50 is < 100 nM.
For `CN1CCC(Nc2cc(C(=O)N3CC[C@H](N4CCc5ccccc5C4)[C@@H](O)C3)ncn2)CC1` (relative stereo) [US20240336593, Example 100], the IC50 was < 100 nM.
The same measure for `COc1ccccc1Nc1cc(C(=O)N2CC[C@H](N3CCc4ccccc4C3)[C@@H](O)C2)ncn1` (relative stereo) [US20240336593, Example 105]: < 100 nM; for `O=C(c1cc(NC2CCN(CC(F)(F)F)CC2)ncn1)N1CC[C@H](N2CCc3ccccc3C2)[C@@H](O)C1` (relative stereo) [US20240336593, Example 121]: < 100 nM; for `O=C(c1cc(NC2CCOCC2)ncn1)N1CC[C@H](O)[C@@H](N2CCc3ccccc3C2)CC1` (relative stereo) [US20240336593, Example 128]: < 100 nM.
The same measure for `CN1CCC(Nc2cc(C(=O)N3CC[C@H](O)[C@@H](N4CCc5ccccc5C4)CC3)ncn2)CC1` (relative stereo) [US20240336593, Example 129]: < 100 nM.
The same measure for `CS(=O)(=O)N1CCC(Nc2cc(C(=O)N3CC[C@H](O)[C@@H](N4CCc5ccccc5C4)CC3)ncn2)CC1` (relative stereo) [US20240336593, Example 130]: < 100 nM; for `CS(=O)(=O)c1ccc(Nc2cc(C(=O)N3CC[C@H](N4CCc5ccccc5C4)[C@@H](O)C3)ncn2)cc1` (relative stereo) [US20240336593, Example 132]: < 100 nM.
As to `CS(=O)(=O)c1cccc(Nc2cc(C(=O)N3CC[C@H](N4CCc5ccccc5C4)[C@@H](O)C3)ncn2)c1` (relative stereo) [US20240336593, Example 133], the IC50 was < 100 nM.
The same measure for `O=C(c1cc(NC2CCS(=O)(=O)CC2)ncn1)N1CC[C@H](N2CCc3ccccc3C2)[C@@H](O)C1` (relative stereo) [US20240336593, Example 135]: < 100 nM.
The same measure for `O=C(c1cc(NC2CCNCC2)ncn1)N1CC[C@H](N2CCc3ccccc3C2)[C@@H](O)C1` [US20240336593, Example 112]: < 100 nM; for `O=C(c1cc(NC2CCN(CCO)CC2)ncn1)N1CC[C@H](N2CCc3ccccc3C2)[C@@H](O)C1` [US20240336593, Example 122]: < 100 nM; for `N#CCC(=O)N1CCC(Nc2cc(C(=O)N3CC[C@H](N4CCc5ccccc5C4)[C@@H](O)C3)ncn2)CC1` [US20240336593, Example 143]: < 100 nM.
The same measure for `CC(=O)N1CCC(Nc2cc(C(=O)N3CC[C@@H](N4CCc5ccccc5C4)[C@H](O)C3)nc(-c3cn[nH]c3)n2)CC1` [US20240336593, Example 145]: < 100 nM; for `CO[C@H]1C[C@@H](Nc2cc(C(=O)N3CC[C@@H](N4CCc5ccccc5C4)[C@H](O)C3)nc(-c3ccccc3)n2)C1` [US20240336593, Example 146]: < 100 nM; for `O=C(c1cc(NCC(F)F)nc(-n2ccnc2)n1)N1CCC(N2CCc3ccccc3C2)[C@H](O)C1` (some centres not stated) [US20240336593, Example 147]: < 100 nM.
For `COCCCCNc1cc(C(=O)N2CC[C@@H](N3CCc4ccccc4C3)[C@H](O)C2)nc(-c2ccccc2)n1` [US20240336593, Example 148], the IC50 is < 100 nM.
